{
  "source": "the Deep4Chem optical property database",
  "experiment": "solvent given as SMILES",
  "data": [
    {"smiles": "COC(=O)/C=C/C=C/C1=[N+]2C(=C(c3c(C)cc(C)cc3C)c3ccc(/C=C/C=C/C(=O)OC)n3[B-]2(F)F)C=C1", "values": [
      {"measurement": "absorption maximum", "setting": "in ClCCl", "result": 641, "unit": "nm"}
    ]},
    {"smiles": "COc1c2ccccc2c(OC)c2c1c1ccc(C)cc1n2C", "values": [
      {"measurement": "absorption maximum", "setting": "in C1CCCCC1", "result": 402, "unit": "nm"},
      {"measurement": "absorption maximum", "setting": "in CC#N", "result": 404, "unit": "nm"},
      {"measurement": "absorption maximum", "setting": "in CO", "result": 401, "unit": "nm"},
      {"measurement": "absorption maximum", "setting": "in ClCCl", "result": 405, "unit": "nm"}
    ]},
    {"smiles": "FC(F)(F)C(F)(F)C(F)(F)C1=NC2=C(Oc3ccccc3)C=C3c4cc(Oc5ccccc5)c5nc(C(F)(F)C(F)(F)C(F)(F)F)nc6c(Oc7ccccc7)cc(c4c56)=C4C=C(Oc5ccccc5)C(=N1)C2C34", "note": "(stereo not drawn)", "values": [
      {"measurement": "absorption maximum", "setting": "in C1CCOC1", "result": 498, "unit": "nm"}
    ]},
    {"smiles": "c1cc2c3c(cccc3c1)-c1c-2c2ccccc2c2ccccc12", "values": [
      {"measurement": "absorption maximum", "setting": "in CCCCCCC", "result": 397, "unit": "nm"}
    ]},
    {"smiles": "CN1\\C(=C/C=C/C=C/C2=C3C=CC(c4ccccc4)=[N+]3[B-](F)(F)n3c2ccc3-c2ccccc2)C(C)(C)c2ccccc21", "values": [
      {"measurement": "absorption maximum", "setting": "in CC#N", "result": 771, "unit": "nm"}
    ]},
    {"smiles": "CCCC1(CCC)c2cc(-c3ccccc3)ccc2-c2ccc(-c3ccc4c(c3)C(CCC)(CCC)c3cc(-c5ccccc5)ccc3-4)cc21", "values": [
      {"measurement": "absorption maximum", "setting": "in C1CCCCC1", "result": 346, "unit": "nm"}
    ]},
    {"smiles": "CCO[B-]1(OCC)n2c(C)cc(C)c2C(c2ccc(I)cc2)=C2C(C)=CC(C)=[N+]21", "values": [
      {"measurement": "absorption maximum", "setting": "in ClC(Cl)Cl", "result": 505, "unit": "nm"}
    ]},
    {"smiles": "CN1/C(=C/C=C(/C=C/C2=[N+](C)c3ccccc3C2(C)C)c2ccccc2)C(C)(C)c2ccccc21", "values": [
      {"measurement": "absorption maximum", "setting": "in CCO", "result": 640, "unit": "nm"},
      {"measurement": "absorption maximum", "setting": "in CO", "result": 637, "unit": "nm"},
      {"measurement": "absorption maximum", "setting": "in CS(C)=O", "result": 645, "unit": "nm"},
      {"measurement": "absorption maximum", "setting": "in O", "result": 634, "unit": "nm"}
    ]},
    {"smiles": "O=c1c2cc(I)ccc2nc2n1[B-](F)(F)[n+]1ccccc1-2", "values": [
      {"measurement": "absorption maximum", "setting": "in CC#N", "result": 345, "unit": "nm"},
      {"measurement": "absorption maximum", "setting": "in ClCCl", "result": 362, "unit": "nm"}
    ]},
    {"smiles": "Cc1ccc(C(=O)NN2C3=C(CC4=C2CCCC4=O)C(=O)CCC3)cc1", "values": [
      {"measurement": "absorption maximum", "setting": "in C1CCOC1", "result": 366, "unit": "nm"},
      {"measurement": "absorption maximum", "setting": "in CC#N", "result": 368, "unit": "nm"},
      {"measurement": "absorption maximum", "setting": "in CC(C)=O", "result": 366, "unit": "nm"},
      {"measurement": "absorption maximum", "setting": "in CCCCCO", "result": 376, "unit": "nm"},
      {"measurement": "absorption maximum", "setting": "in CO", "result": 374, "unit": "nm"},
      {"measurement": "absorption maximum", "setting": "in ClC(Cl)Cl", "result": 370, "unit": "nm"},
      {"measurement": "absorption maximum", "setting": "in ClCCl", "result": 366, "unit": "nm"}
    ]},
    {"smiles": "CC(C)[Si](C#Cc1ccc(C#Cc2c3cc4ccccc4cc3c(C#C[Si](C(C)C)(C(C)C)C(C)C)c3cc4ccccc4cc23)cc1)(C(C)C)C(C)C", "values": [
      {"measurement": "absorption maximum", "setting": "in ClCCl", "result": 659, "unit": "nm"}
    ]},
    {"smiles": "CCn1c2ccccc2c2cc(/C=C/c3cc(/C=C/c4ccc5c(c4)c4ccccc4n5CC)ncn3)ccc21", "values": [
      {"measurement": "absorption maximum", "setting": "in C1CCOC1", "result": 397, "unit": "nm"},
      {"measurement": "absorption maximum", "setting": "in CCOC(C)=O", "result": 395, "unit": "nm"},
      {"measurement": "absorption maximum", "setting": "in CN(C)C=O", "result": 405, "unit": "nm"},
      {"measurement": "absorption maximum", "setting": "in Cc1ccccc1", "result": 397, "unit": "nm"},
      {"measurement": "absorption maximum", "setting": "in ClCCl", "result": 405, "unit": "nm"}
    ]},
    {"smiles": "O=C1CC(=O)Nc2cc(Cl)ccc2N1", "values": [
      {"measurement": "absorption maximum", "setting": "in CS(C)=O", "result": 298, "unit": "nm"}
    ]},
    {"smiles": "c1ccc(-c2cc(-c3ccccc3)cc(-c3ccc4c(c3)C3(c5ccccc5-4)c4ccccc4-c4c3c3c5ccccc5c(-c5cc(-c6ccccc6)cc(-c6ccccc6)c5)cc3c3ccccc43)c2)cc1", "note": "(stereo not drawn)", "values": [
      {"measurement": "absorption maximum", "setting": "in C1CCOC1", "result": 387, "unit": "nm"}
    ]},
    {"smiles": "O=[N+]([O-])c1ccco1", "values": [
      {"measurement": "absorption maximum", "setting": "in CO", "result": 302, "unit": "nm"},
      {"measurement": "absorption maximum", "setting": "in O", "result": 313, "unit": "nm"}
    ]},
    {"smiles": "O=c1c2cc(F)c(N3CCOCC3)cc2sc2cc(N3CCOCC3)c(F)cc12", "values": [
      {"measurement": "absorption maximum", "setting": "in CCO", "result": 361, "unit": "nm"}
    ]},
    {"smiles": "O=C(NCc1cc(=O)oc2cc([O-])c(Br)cc12)c1cccnc1", "values": [
      {"measurement": "absorption maximum", "setting": "in O", "result": 370, "unit": "nm"}
    ]},
    {"smiles": "Cc1cccc2[n+]1[B-](c1ccccc1)(c1ccccc1)c1cccc3c4c5c(cccc5c-2c13)[B-](c1ccccc1)(c1ccccc1)[n+]1c(C)cccc1-4", "values": [
      {"measurement": "absorption maximum", "setting": "in ClCCl", "result": 542, "unit": "nm"}
    ]},
    {"smiles": "CC1(C)C2=[N+](CCCCCC(=O)NCCNC(=O)CCCCCN3/C(=C/C=C/C=C/C=C/2)C(C)(C)c2cc(S(=O)(=O)[O-])ccc23)c2ccc(S(=O)(=O)[O-])cc21", "values": [
      {"measurement": "absorption maximum", "setting": "in CO", "result": 755, "unit": "nm"},
      {"measurement": "absorption maximum", "setting": "in O", "result": 750, "unit": "nm"}
    ]},
    {"smiles": "O=C1OC(=O)[C@H]2[C@@H]1[C@@H]1C[C@H]2c2c1c(-c1ccccc1)c1ccccc1c2-c1ccccc1", "values": [
      {"measurement": "absorption maximum", "setting": "in ClC(Cl)Cl", "result": 295, "unit": "nm"}
    ]},
    {"smiles": "COc1ccc(C#Cc2ccc3nc4ccc(C#Cc5ccc(OC)cc5)cn4c(=O)c3c2)cc1", "values": [
      {"measurement": "absorption maximum", "setting": "in ClCCl", "result": 385, "unit": "nm"}
    ]},
    {"smiles": "c1ccc2c(c1)OP1(=NP(Oc3ccc4ccc5cccc6ccc3c4c56)(Oc3ccc4ccc5cccc6ccc3c4c56)=NP(Oc3ccc4ccc5cccc6ccc3c4c56)(Oc3ccc4ccc5cccc6ccc3c4c56)=N1)Oc1ccccc1-2", "values": [
      {"measurement": "absorption maximum", "setting": "in ClCCl", "result": 343, "unit": "nm"}
    ]},
    {"smiles": "O=c1oc2ccccc2c2c1c(=O)oc1c3ccccc3cc(O)c12", "values": [
      {"measurement": "absorption maximum", "setting": "in CS(C)=O", "result": 480, "unit": "nm"},
      {"measurement": "absorption maximum", "setting": "in ClCCl", "result": 447, "unit": "nm"}
    ]}
  ]
}
